Measurements published in patent CN110483432A, “一类丙烯酸类化合物及其制备方法、药物组合物和用途” (Shanghai Institute of Materia Medica of CAS, priority 2018, dated 2019).

Columns and labels:
[1] = target: CREB/CRTC2 (Homo sapiens, UniProt P16220+Q53ET0); assay: Mammalian two-hybrid (CREB-GAL4-BD / CRTC2-VP16-AD, Gal4-luciferase reporter) test of inhibition of CREB/CRTC2 protein interaction in HEK293 cells; type: cell-based; conditions: 50 μM final concentration; HEK293 two-hybrid activation model (Forsklin); overnight; read-out: relative reporter gene activity (vs solvent control DMSO, set to 100%)
[2] = Cytotoxicity test in HEK293 cells (CCK8); type: cell-based; conditions: human, overnight, HEK293, CCK8 OD450, read-out: cell viability
[3] = test system: CREB phosphorylation (Ser133) (CREB的磷酸化(Ser133)); assay: Western blot of CREB phosphorylation (Ser133) in glucagon signalling pathway; type: cell-based, mouse; conditions: 20 μM, 1 h preincubation, glucagon 100 nM, 30 min, primary hepatocytes or liver tissue

Chain of CREB/CRTC2 (P16220 whole entry, the tested form may be a part): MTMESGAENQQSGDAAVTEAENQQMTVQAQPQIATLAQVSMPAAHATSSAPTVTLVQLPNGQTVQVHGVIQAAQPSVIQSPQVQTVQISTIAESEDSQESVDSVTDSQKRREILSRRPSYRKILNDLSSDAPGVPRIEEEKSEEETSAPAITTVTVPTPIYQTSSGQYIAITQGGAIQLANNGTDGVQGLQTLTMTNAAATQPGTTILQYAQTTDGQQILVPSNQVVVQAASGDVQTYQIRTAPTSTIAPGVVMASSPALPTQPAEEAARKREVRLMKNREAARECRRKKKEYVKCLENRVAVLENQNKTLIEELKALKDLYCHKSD
Chain of CREB/CRTC2 (Q53ET0 whole entry, the tested form may be a part): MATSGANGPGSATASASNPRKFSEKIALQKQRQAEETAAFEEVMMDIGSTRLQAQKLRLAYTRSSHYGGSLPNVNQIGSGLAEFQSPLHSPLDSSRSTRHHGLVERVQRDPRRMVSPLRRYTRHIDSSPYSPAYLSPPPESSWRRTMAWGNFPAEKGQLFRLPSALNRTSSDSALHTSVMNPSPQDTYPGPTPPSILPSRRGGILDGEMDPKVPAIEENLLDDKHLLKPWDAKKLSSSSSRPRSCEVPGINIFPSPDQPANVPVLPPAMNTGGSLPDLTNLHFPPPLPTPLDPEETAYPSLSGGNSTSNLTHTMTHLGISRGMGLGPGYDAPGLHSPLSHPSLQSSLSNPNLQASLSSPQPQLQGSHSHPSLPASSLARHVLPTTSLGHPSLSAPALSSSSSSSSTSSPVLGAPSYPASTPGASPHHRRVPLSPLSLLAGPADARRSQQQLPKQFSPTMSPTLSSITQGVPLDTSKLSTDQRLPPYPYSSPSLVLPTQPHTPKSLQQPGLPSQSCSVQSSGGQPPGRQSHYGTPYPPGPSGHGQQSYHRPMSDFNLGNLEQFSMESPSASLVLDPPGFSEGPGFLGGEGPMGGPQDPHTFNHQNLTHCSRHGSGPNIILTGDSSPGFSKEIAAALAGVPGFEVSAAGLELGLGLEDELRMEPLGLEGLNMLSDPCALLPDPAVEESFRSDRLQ

remaining activity at 50 µM [1]: < 30%
SMILES: O=C(/C=C/c1cccc(-c2ccccc2)c1)N1C(=O)OC[C@@H]1c1ccccc1 [A57, (S,E)-3-(3-([1,1’-联苯基]-3-基)丙烯酰)-4-苯基噁唑烷-2-酮]
viability at 50 µM [2]: ~100% | effect on glucagon-stimulated CREB phosphorylation level [3]: 没有显著的影响
